This is an account of results in patent US20240287093A1, “HIGH ACTIVITY STING PROTEIN AGONIST” (ADLAI NORTYE BIOPHARMA CO., LTD., priority 2018, published 2024).

Holding throughout (type): cell-based
In one experiment the target is T1, STING variants (WT) (Homo sapiens, UniProt Q86WV6).
T1 construct: host or cells: HEK-Blue ISG KO-STING cells (Invivogen, hkb-kostg)
In words: SEAP reporter assay in HEK-Blue ISG KO-STING cells transfected with STING WT variant (Method 1). The note with it: 24 h. The text has this: (§1) Example I: STING Variants (WT & HAQ) Activation by Compounds in HEK-Blue™ ISG KO-STING Cells (Method 1)
(§2) Activation of STING can be determined using a SEAP reporter assay in HEK-Blue™ ISG KO-STING cells (Invivogen, cat #hkb-kostg) transfected with plasmids expressing STING variants (WT & HAQ) (referred to WO2017/175147A1). STING variants (WT & HAQ) vector were constructed based on STING-232H vector (Origene, RC208418). GFP vector (VT2069) was bought from Youbio. The detailed protocol as follows: HEK-Blue™ ISG KO-STING cells were harvest and seeding into 96 well plate, the final cell number was 0.8×10^5 cells/well. Transfections were prepared using Lipofectamine 2000 (Invitrogen, Cat #11668-027) following the manufacturer's instructions (Lipo2000:DNA=1:10), 20 ul of transfection suspension containing 1 ng STING vector was added to cell culture plate and incubated at 37° C., 5% CO2 for 24 h. After 24 hours incubation, compounds were added at proper concentration, and the final DMSO concentration was 0.5%. After 24 h incubation, the supernatant was collected to detect SEAP signal using Great EscAPe SEAP chemiluminescence KIT (Clontech, cat #631738) and cells were collected to detect cell viability using CellTiter-Glo Luminescent Cell Viability Assay (Promega, cat #G7573) following the manufacturer's instructions. The data were described by the ratio of the stimulating signal of compounds to 0.5% DMSO.

The target of a further experiment is T2, STING variants (HAQ) (Homo sapiens, UniProt Q86WV6, G230A/R293Q/R71H).
T2 construct: host or cells: HEK-Blue ISG KO-STING cells (Invivogen, hkb-kostg)
In words: SEAP reporter assay in HEK-Blue ISG KO-STING cells transfected with STING HAQ variant (Method 1). The settings on record: 24 h.
Excerpt: as §1, §2
(In general: Reporter assays use an easily measured gene product as a stand-in for the process of interest.)

The target of another experiment is T3, STING (Homo sapiens, UniProt Q86WV6, G230A/H232R/R293Q/R71H).
T3 construct: THP1 was purchased from National Collection of Authenticated Cell Cultures (Cat #TCHu 57); host or cells: THP1
The experiment can be described thus: IFNβ release from THP1 by STING activation (hIFNβ ELISA). The note with it: THP1 cells, 24 h, IFN-β in supernatant; inactive = IFNβ not detected at the maximum concentration of compounds. As to the method:
Example III: Compound Stimulate THP1 to Release IFNβ by STING Activation
In this assay, activation of STING by compounds was evaluated by detecting their ability to stimulate the secretion of IFN-β (interferon-beta) from THP1. THP1 was purchased from National Collection of Authenticated Cell Cultures (Cat #TCHu 57). The top dose of compounds was setted according to their solubility. First, Compounds were 3 times diluted with medium, 8-dose points in total. The final DMSO concentration was 0.2%. THP1 during the logarithmic phase was resuspended to 2×10^6 cells/ml in assay medium. The THP1-cell suspension was dispensed into a 96-well U bottom plate containing 50 ul of compound diluted in medium. After 24 h incubation at 37° C., 5% CO2, the supernatant was collected. The concentration of IFN-β in the supernatant was measured using a human IFNβ ELISA KIT (R&D, DY814-05). The data was fitted with GraphPad Prism or XLfit to calculate EC50 values.
(In general: In an ELISA, binding on a coated surface is turned into a signal by an enzyme label.)

Setting [1] is: compound concentration 75.95 μM.
Where [2] appears, read: compound concentration 206.6 μM.
Setting [3] is: compound concentration 31.25 μM, SEAP signal ratio to 0.5% DMSO.
Setting [4] is: compound concentration 153.2 μM.
[5] abbreviates: compound concentration 115.2 μM.
Where [6] appears, read: compound concentration 127.7 μM.

T3 sequence (Q86WV6 whole entry R71H/G230A/H232R/R293Q): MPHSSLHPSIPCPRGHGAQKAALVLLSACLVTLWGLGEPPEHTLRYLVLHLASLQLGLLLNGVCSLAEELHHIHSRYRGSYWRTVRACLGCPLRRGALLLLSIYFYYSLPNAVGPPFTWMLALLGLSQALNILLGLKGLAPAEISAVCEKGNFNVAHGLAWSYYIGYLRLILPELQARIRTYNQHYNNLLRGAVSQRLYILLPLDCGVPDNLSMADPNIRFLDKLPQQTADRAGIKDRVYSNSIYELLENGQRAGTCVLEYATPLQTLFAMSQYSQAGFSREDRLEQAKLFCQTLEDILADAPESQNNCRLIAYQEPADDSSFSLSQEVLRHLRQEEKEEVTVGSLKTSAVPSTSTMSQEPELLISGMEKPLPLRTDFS
T2 sequence (Q86WV6 whole entry R71H/G230A/R293Q): as the sequence (Q86WV6 whole entry R71H/G230A/H232R/R293Q) above, with R232H counted along it

In the case of `CCn1nc(C)cc1C(=O)Nc1nc2cc(C(N)=O)cc3c2n1[C@@H](CCNC(=O)/C=C/c1ccccc1)CO3` [Example 15, (S)-3-(2-Cinnamamidoethyl)-2-(1-ethyl-3-methyl-1H-pyrazole-5-carboxamido)-3,4-dihydro-5-oxa-1,2a-diazaacenaphthylene-7-carboxamide], the “Fold change related to DMSO control, WT” value on STING variants (WT) (setting [1]) was determined as 3.68 fold. Also, the “Fold change related to DMSO control, HAQ” value on STING variants (HAQ) (setting [1]) worked out at 20.00 fold. The “hIFNβ ELISA (EC50, μM)” value on STING is “inactive”.
As for `CCn1nc(C)cc1C(=O)Nc1nc2cc(C(N)=O)cc3c2n1CCO3` [Example 11, 2-(1-Ethyl-3-methyl-1H-pyrazole-5-carboxamido)-3,4-dihydro-5-oxa-1,2a-diazaacenaphthylene-7-carboxamide], at STING variants (WT) (compound concentration 27.9 μM), the “Fold change related to DMSO control, WT” value is 2.26 fold. Besides, the “Fold change related to DMSO control, HAQ” value at STING variants (HAQ) (compound concentration 27.9 μM) is reported as 4.20 fold. Moreover, the “hIFNβ ELISA (EC50, μM)” value at STING was “inactive”.
Take `CCn1nc(C)cc1C(=O)Nc1nc2cc(C(N)=O)cc3c2n1[C@@H](Cc1ccccc1)CO3` [Example 24, (S)-3-Benzyl-2-(1-ethyl-3-methyl-1H-pyrazole-5-carboxamido)-3,4-dihydro-5-oxa-1,2a-diazaacenaphthylene-7-carboxamide]: the “Fold change related to DMSO control, WT” value at STING variants (WT) (compound concentration 25 μM) was found to be 2.33 fold. The “Fold change related to DMSO control, HAQ” value at STING variants (HAQ) (compound concentration 25 μM) is given as 65.85 fold. In addition, the “hIFNβ ELISA (EC50, μM)” value on STING was “inactive”.
The matching figures for `CCC[C@H]1COc2cc(C(N)=O)cc3nc(NC(=O)c4cc(C)nn4CC)n1c23` [Example 23, (S)-2-(1-Ethyl-3-methyl-1H-pyrazole-5-carboxamido)-3-propyl-3,4-dihydro-5-oxa-1,2a-diazacenaphthylene-7-carboxamide]: 2.62 fold, 81.27 fold and “inactive”.
`CCn1nc(C)cc1C(=O)Nc1nc2cc(C(N)=O)cc3c2n1CC(C)(C)CO3` [Example 27, 1-(1-Ethyl-3-methyl-1H-pyrazole-5-carboxamido)-8,8-dimethyl-8,9-dihydro-7H-6-oxa-2,9a-diazabenzo[cd]azulene-4-carboxamide]: the “Fold change related to DMSO control, WT” value on STING variants (WT) (compound concentration 25 μM) was 2.37 fold. Moreover, at STING variants (HAQ) (compound concentration 25 μM), the “Fold change related to DMSO control, HAQ” value amounted to 56.43 fold. Further, the EC50 – broadly, the concentration that produces a half-maximal response – on STING turned out to be 22.1 µM.
Consider `CCn1nc(C)cc1C(=O)Nc1nc2cc(C(N)=O)cc3c2n1[C@@H](CCCNC(=O)OCc1cccnc1)CO3` [Example 32, Pyridin-3-ylmethyl (S)-(3-(7-carbamoyl-2-(1-ethyl-3-methyl-1H-pyrazole-5-carboxamido)-3,4-dihydro-5-oxa-1,2a-diazaacenaphthylen-3-yl)propyl)carbamate], for which, on STING variants (WT) (compound concentration 25 μM), the “Fold change related to DMSO control, WT” value turned out to be 1.45 fold. At STING variants (HAQ) (compound concentration 25 μM), the “Fold change related to DMSO control, HAQ” value amounted to 2.88 fold. In addition, the “hIFNβ ELISA (EC50, μM)” value on STING was “inactive”.
Take `CCn1nc(C)cc1C(=O)Nc1nc2cc(C(N)=O)cc3c2n1[C@@H](C)CCO3` [Example 22, (S)-1-(1-Ethyl-3-methyl-1H-pyrazole-5-carboxamido)-9-methyl-8,9-dihydro-7H-6-oxa-2,9a-diazabenzo[cd]azulene-4-carboxamide]: on STING variants (WT) (compound concentration 25 μM), the “Fold change related to DMSO control, WT” value worked out at 3.02 fold. Moreover, the “Fold change related to DMSO control, HAQ” value at STING variants (HAQ) (compound concentration 25 μM) turned out to be 95.64 fold. Also, the “hIFNβ ELISA (EC50, μM)” value on STING was “inactive”.
With `CCn1nc(C)cc1C(=O)Nc1nc2cc(C(N)=O)cc3c2n1[C@@H](CCNC(=O)OCc1ccccn1)CO3` [Example 9, Pyridin-2-ylmethyl (S)-(2-(7-carbamoyl-2-(1-ethyl-3-methyl-1H-pyrazole-5-carboxamido)-3,4-dihydro-5-oxa-1,2a-diazaacenaphthylen-3-yl)ethyl)carbamate], the “Fold change related to DMSO control, WT” value at STING variants (WT) (setting [2]) came to 2.86 fold. For the same molecule, the “Fold change related to DMSO control, HAQ” value on STING variants (HAQ) (setting [2]) amounted to 21.28 fold. In addition, on STING, the “hIFNβ ELISA (EC50, μM)” value was “inactive”.
Turning to `CCn1nc(C)cc1C(=O)Nc1nc2cc(C(N)=O)cc3c2n1CC1(CC1)O3` [Example 28, 2-(1-Ethyl-3-methyl-1H-pyrazole-5-carboxamido)-3H-5-oxa-1,2a-diazaspiro[acenaphthylene-4,1′-cyclopropan]-1,2a^1(5a),6,8-tetraene-7-carboxamide], on STING variants (WT) (compound concentration 25 μM), the “Fold change related to DMSO control, WT” value turned out to be 2.34 fold. Besides, the “Fold change related to DMSO control, HAQ” value at STING variants (HAQ) (compound concentration 25 μM) was determined as 38.16 fold. The “hIFNβ ELISA (EC50, μM)” value on STING was “inactive”.
As to `CCn1nc(C)cc1C(=O)Nc1nc2cc(C(N)=O)cc3c2n1[C@@H](C)CO3` [Example 12], the “Fold change related to DMSO control, WT” value at STING variants (WT) (compound concentration 52.6 μM) came to 3.31 fold. Besides, on STING variants (HAQ) (compound concentration 52.6 μM), the “Fold change related to DMSO control, HAQ” value turned out to be 27.37 fold. The same molecule had a concentration giving a half-maximal response (EC50) at STING of over 8.9 µM.
Consider `CCn1nc(C)cc1C(=O)Nc1nc2cc(C(N)=O)cc3c2n1C[C@@H](C)O3` [Example 16, (R)-2-(1-Ethyl-3-methyl-1H-pyrazole-5-carboxamido)-4-methyl-3,4-dihydro-5-oxa-1,2a-diazaacenaphthylene-7-carboxamide], for which, on STING variants (WT) (compound concentration 42.8 μM), the “Fold change related to DMSO control, WT” value stood at 3.00 fold. Moreover, the “Fold change related to DMSO control, HAQ” value at STING variants (HAQ) (compound concentration 42.8 μM) amounted to 15.06 fold. For the same molecule, at STING, the “hIFNβ ELISA (EC50, μM)” value was “inactive”.
As for `CCn1nc(C)cc1C(=O)Nc1nc2cc(C(N)=O)cc3c2n1[C@@H](CCCNC(=O)COc1ccccc1)CO3` [Example 33, (S)-2-(1-ethyl-3-methyl-1H-pyrazole-5-carboxamido)-3-(3-(2-phenoxyacetamido)propyl)-3,4-dihydro-5-oxa-1,2a-diazaacenaphthylene-7-carboxamide], the “Fold change related to DMSO control, WT” value on STING variants (WT) (compound concentration 25 μM) was found to be 2.49 fold. Also, the “Fold change related to DMSO control, HAQ” value on STING variants (HAQ) (compound concentration 25 μM) stood at 20.81 fold. For the same molecule, the “hIFNβ ELISA (EC50, μM)” value at STING was “inactive”.
As for `CCn1nc(C)cc1C(=O)Nc1nc2cc(C(N)=O)cc3c2n1[C@@H](CCCNC(=O)OCc1ccccc1)CO3` [Example 1, Benzyl (S)-(3-(7-carbamoyl-2-(1-ethyl-3-methyl-1H-pyrazole-5-carboxamido)-3,4-dihydro-5-oxa-1,2a-diazaacenaphthylen-3-yl)propyl)carbamate], the “Fold change related to DMSO control, WT” value at STING variants (WT) (setting [3]) is on record as 3.08 fold. Besides, the “Fold change related to DMSO control, HAQ” value at STING variants (HAQ) (setting [3]) came out at 21.49 fold. Moreover, on STING, the “hIFNβ ELISA (EC50, μM)” value was “inactive”.
`CCn1nc(C)cc1C(=O)Nc1nc2cc(C(N)=O)cc3c2n1[C@@H](CCCCNC(=O)OCc1cccnc1)CO3` [Example 18, Pyridin-3-ylmethyl (S)-(4-(7-carbamoyl-2-(1-ethyl-3-methyl-1H-pyrazole-5-carboxamido)-3,4-dihydro-5-oxa-1,2a-diazaacenaphthylen-3-yl)butyl)carbamate]: the “Fold change related to DMSO control, WT” value on STING variants (WT) (setting [4]) came to 1.58 fold. Further, at STING variants (HAQ) (setting [4]), the “Fold change related to DMSO control, HAQ” value amounted to 17.64 fold. For the same molecule, the “hIFNβ ELISA (EC50, μM)” value on STING was “inactive”.
On to `CCn1nc(C)cc1C(=O)Nc1nc2cc(C(N)=O)cc3c2n1[C@@H](CCNC(=O)COc1ccccc1)CO3` [Example 7, (S)-2-(1-Ethyl-3-methyl-1H-pyrazole-5-carboxamido)-3-(2-(2-phenoxyacetamido)ethyl)-3,4-dihydro-5-oxa-1,2a-diazaacenaphthylene-7-carboxamide], for which the “Fold change related to DMSO control, WT” value at STING variants (WT) (setting [5]) was 2.70 fold. The “Fold change related to DMSO control, HAQ” value on STING variants (HAQ) (setting [5]) is reported as 13.64 fold. For the same molecule, the “hIFNβ ELISA (EC50, μM)” value at STING is “inactive”.
Regarding `CCn1nc(C)cc1C(=O)Nc1nc2cc(C(N)=O)cc3c2n1[C@@H](CCCCNC(=O)OCc1ccncc1)CO3` [Example 20, Pyridin-4-ylmethyl (S)-(4-(7-carbamoyl-2-(1-ethyl-3-methyl-1H-pyrazole-5-carboxamido)-3,4-dihydro-5-oxa-1,2a-diazaacenaphthylen-3-yl)butyl)carbamate], the “Fold change related to DMSO control, WT” value on STING variants (WT) (setting [6]) is reported as 1.43 fold. In addition, the “Fold change related to DMSO control, HAQ” value on STING variants (HAQ) (setting [6]) stood at 16.22 fold. Also, the “hIFNβ ELISA (EC50, μM)” value on STING is “inactive”.
